Experiment [1] has as its system human corneal endothelial cells. Kind of experiment: UV-induced cell death, live cell count. The format is cell-based. Conditions: UV 100 J/m^2; 10 μM; 12 hours after UV irradiation; vs UV only. The method, then: In order to study the effect of a p38 MAP kinase signal inhibition on cell death, cultured human corneal endothelial cells were stimulated with ultraviolet rays (UV) of 100 J/m^2 to induce cell death to study the effect of SB203580 (used at 10 μM). The number of cells was counted for the study.

The subject of experiment [2] is corneal endothelium. Kind of experiment: Monkey corneal endothelial partial disorder model, eye drops, Ki-67 immunostaining. Particulars: 3 mM eye drops, 50 μl, 4 times a day, right eye; vs base agent in left eye; 5 views per eye; p<0.01. Type of experiment: in vivo, cynomolgus monkey. Here is the method:
After a stainless steel bar with a diameter of 7 mm was cooled with liquid nitrogen, the bar was contacted with the corneal in both eyes of 2 cynomolgus monkeys (purchased from Shiga University of Medical Science). About 7 mm in diameter of the corneal endothelium fell off to make a partial disorder model.
50 μl of SB203580 (3 mM) eyedrops was then administered into the right eye 4 times a day. Similarly, eye drops of abase agent, which is phosphate buffer solution, were administered into the left eye as the control.
Expression of Ki-67 associated with cell proliferation was confirmed to be elevated after administration of SB203580 eye drops by immunostaining. The methodology of immunostaining was in accordance with the above-described Preparation Example 2. The antibodies were changed to antibodies to Ki-67 to conduct the experiment.
For a tissue staining inspection, cultured cells were immobilized with 4% formaldehyde for 10 minutes at room temperature (RT) and incubated for 60 minutes with 1% bovine serum albumin (BSA). The antibodies to Ki-67 were diluted 1:200 to conduct the inspection. For secondary antibodies, a 1:1000 dilution of Alexa Fluor® 488 labeling goat antimouse IgG (Life Technologies) was used. […] Slides were then observed under a fluorescence microscope (all-in-one fluorescence microscope, KEYENCE, Osaka, JAPAN). […]

Experiment [3] has as its system human corneal endothelial cells. Kind of experiment: IL-6 production by RT-PCR and ELISA. The format is cell-based. Particulars: 10 μM, cultured for 20 days. Here is the method:
*PCR: PCR was carried out on each laminin chain and integrin chain by RT-PCR (reverse transcription polymerase chain reaction). A primer was purchased from the oligonucleotide synthesis company INVITROGEN and then desalinized for use. RNEasy Mini Kit (QIAGEN, catalog number: 74106) was used for extracting the entire RNA from cells. The Descemet's membrane including corneal endothelial cells were peeled off from a cornea for research purchased from the Seattle Eye Bank and the corneal endothelial cells were mechanically peeled off with the basal membrane for use in RNA extraction from the corneal endothelial cells. […]
Electrophoresis is applied to an amplified DNA fragment with 1.5% agarose gel (Nacalai Tesque, catalog number: 01149-76) and the fragment was detected by staining with ethidium bromide (Nacalai Tesque, catalog number: 14603-51).
*The amount of IL-6 expression of human corneal endothelial cells was quantified by RT-PCR by the following method. […] The reaction was stopped with 1M sulfuric acid to measure the absorbance at 450 nm with a plate reader. […] The amount of IL-6 protein in a culture supernatant collected after 7 days was quantified in accordance with the manual of DuoSetELISA human IL-6 (R & D Cat # DY206). […]

Experiment [4] concerns corneal endothelium. Nature of the experiment: Partial rabbit corneal endothelial disorder model, eye drops. Type of experiment: in vivo. Here is the method: A stainless steel chip with a diameter of 7 mm was immersed in liquid nitrogen and cooled. The chip was contacted with the center portion of a corneal of a Japanese white rabbit (obtained from Oriental Bioservice) for 15 seconds under general anesthesia, such that corneal endothelial cells at the center portion partially fell off. Eye drops of SB203580 adjusted to 10 mM was then administered 4 times a day for 2 days at 50 μl per dose. As a control, eye drops of a base agent were administered in an eye in which a partial corneal endothelial disorder was similarly created, and a picture was taken. Further, the rabbit was euthanized and the corneal was extracted. The wounded area of the corneal endothelium was stained with alizarin red S (Nacalai Tesque, CI-58005) and observed. Furthermore, immunostaining was applied to corneal tissue with the cell proliferation marker Ki67. The same methodology as the aforementioned Examples or the like was used for immunostaining.

Regarding `C[S+]([O-])c1ccc(-c2nc(-c3ccncc3)c(-c3ccc(F)cc3)[nH]2)cc1` (stereo not shown) [SB203580, 4-(4-fluorophenyl)-2-(4-methylsulfinylphenyl)-5-(4-pyridyl)-1H-imidazole], the “number of live cells after UV irradiation (percentage to control)” value in experiment [1] is “significantly increases”. Further, in the experiment on corneal endothelium [2], the “percentage of Ki67 positive cells in corneal endothelium” value is “significantly more Ki67 positive cells”. In addition, the “IL-6 production (PCR)” value in experiment [3] (RT-PCR) is recorded as “decreases relative to the control”. The “IL-6 production (ELISA)” value in experiment [3] (supernatant collected after 7 days) is given as “decreases relative to the control”. Also, the “wound area of corneal endothelium (alizarin staining)” value with corneal endothelium [4] (10 mM eye drops 4 times a day for 2 days, 50 μl per dose, 6 eyes each, vs control, p<0.01) is recorded as “contracted significantly more”. For the same compound, the “transparency of cornea (anterior eye section picture)” value in the experiment with corneal endothelium [4] (10 mM eye drops 4 times a day for 2 days, 50 μl per dose, day 2) is on record as “recovered quickly”. The “Expression of Ki67 in corneal tissue (ratio of Ki67 positive cells)” value with corneal endothelium [4] (10 mM eye drops, vs control) is listed as “significantly more cells”.

Source of the values: patent US10813920B2, “Drug for treating corneal endothelium by promoting cell proliferation or inhibiting cell damage” (THE DOSHISHA, priority 2013, dated 2020).
